Results taken from the NIST ThermoML archive (doi:10.1021/je020140j).
± gives the expanded uncertainty stated by the source.

Assay: xn = mol fraction of the nth substance listed
Conditions: 101 kPa, Liquid

OCCO [1,2-ethanediol] + O
Conditions	mass density [kg/m3]	viscosity [mPa·s]
293.15 K, x1 = 0.0312	1011.7 ± 3.8	1.337 ± 0.024
293.15 K, x1 = 0.0676	1024.6 ± 3.9	1.785 ± 0.031
293.15 K, x1 = 0.1105	1037.2 ± 3.9	2.272 ± 0.039
293.15 K, x1 = 0.162	1051.3 ± 4	2.951 ± 0.05
293.15 K, x1 = 0.2248	1064.8 ± 4.1	3.941 ± 0.065
293.15 K, x1 = 0.3031	1076.7 ± 4.1	5.102 ± 0.083
293.15 K, x1 = 0.4036	1087.8 ± 4.2	6.898 ± 0.1
293.15 K, x1 = 0.537	1097.8 ± 4.2	9.696 ± 0.14
293.15 K, x1 = 0.723	1105.7 ± 4.3	14.04 ± 0.19
293.15 K, x1 = 1	1113.7 ± 4.3	20.83 ± 0.27
303.15 K, x1 = 0.0312	1006.1 ± 4.1	1.047 ± 0.019
303.15 K, x1 = 0.0676	1018.4 ± 4.2	1.331 ± 0.024
303.15 K, x1 = 0.1105	1030 ± 4.3	1.694 ± 0.03
303.15 K, x1 = 0.162	1043.4 ± 4.3	2.2 ± 0.038
303.15 K, x1 = 0.2248	1056.2 ± 4.4	2.832 ± 0.048
303.15 K, x1 = 0.3031	1067.5 ± 4.4	3.728 ± 0.062
303.15 K, x1 = 0.4036	1078 ± 5	4.955 ± 0.081
303.15 K, x1 = 0.537	1087 ± 5	6.749 ± 0.1
303.15 K, x1 = 0.723	–	9.399 ± 0.13
303.15 K, x1 = 1	–	13.65 ± 0.18
313.15 K, x1 = 0.0312	1001.3 ± 4.5	0.835 ± 0.016
313.15 K, x1 = 0.0676	1010.6 ± 4.5	1.022 ± 0.019
313.15 K, x1 = 0.1105	1021.9 ± 4.6	1.319 ± 0.024
313.15 K, x1 = 0.162	1034.7 ± 4.6	1.677 ± 0.029
313.15 K, x1 = 0.2248	1046.8 ± 4.7	2.132 ± 0.037
313.15 K, x1 = 0.3031	1057.9 ± 4.8	2.756 ± 0.047
313.15 K, x1 = 0.4036	1067.9 ± 4.8	3.575 ± 0.059
313.15 K, x1 = 0.537	1077.1 ± 4.9	4.776 ± 0.078
313.15 K, x1 = 0.723	1085.8 ± 4.9	6.449 ± 0.099
313.15 K, x1 = 1	1093.6 ± 4.9	9.443 ± 0.13
323.15 K, x1 = 0.0312	994.9 ± 4.8	0.685 ± 0.014
323.15 K, x1 = 0.0676	1005.1 ± 4.9	0.868 ± 0.016
323.15 K, x1 = 0.1105	1015.1 ± 4.9	1.064 ± 0.02
323.15 K, x1 = 0.162	1027.4 ± 5	1.322 ± 0.024
323.15 K, x1 = 0.2248	1038.6 ± 5	1.657 ± 0.029
323.15 K, x1 = 0.3031	1049.2 ± 5.1	2.113 ± 0.036
323.15 K, x1 = 0.4036	1059 ± 5	2.709 ± 0.046
323.15 K, x1 = 0.537	1068 ± 5	3.593 ± 0.06
323.15 K, x1 = 0.723	1076.7 ± 5.2	4.837 ± 0.079
323.15 K, x1 = 1	1084.7 ± 5.3	6.992 ± 0.11
333.15 K, x1 = 0.0312	989.8 ± 5.2	0.576 ± 0.012
333.15 K, x1 = 0.0676	997.9 ± 5.2	0.713 ± 0.014
333.15 K, x1 = 0.1105	1007.2 ± 5.3	0.875 ± 0.017
333.15 K, x1 = 0.162	1019.2 ± 5.3	1.073 ± 0.02
333.15 K, x1 = 0.2248	1030.3 ± 5.4	1.312 ± 0.024
333.15 K, x1 = 0.3031	1040.6 ± 5.4	1.626 ± 0.029
333.15 K, x1 = 0.4036	1050.3 ± 5.5	2.053 ± 0.035
333.15 K, x1 = 0.537	1059.2 ± 5.5	2.684 ± 0.045
333.15 K, x1 = 0.723	1068 ± 6	3.51 ± 0.058
333.15 K, x1 = 1	1076.4 ± 5.6	5.06 ± 0.082
343.15 K, x1 = 0.0312	983.7 ± 5.5	0.498 ± 0.011
343.15 K, x1 = 0.0676	991.5 ± 5.5	0.597 ± 0.013
343.15 K, x1 = 0.1105	1000.4 ± 5.6	0.728 ± 0.014
343.15 K, x1 = 0.162	1011.5 ± 5.6	0.881 ± 0.017
343.15 K, x1 = 0.2248	1022.3 ± 5.7	1.071 ± 0.02
343.15 K, x1 = 0.3031	1031.9 ± 5.7	1.32 ± 0.024
343.15 K, x1 = 0.4036	1041.3 ± 5.8	1.648 ± 0.029
343.15 K, x1 = 0.537	1050.1 ± 5.8	2.136 ± 0.037
343.15 K, x1 = 0.723	1058.8 ± 5.9	2.817 ± 0.048
343.15 K, x1 = 1	1067.5 ± 5.9	3.987 ± 0.066
353.15 K, x1 = 0.0312	977.1 ± 5.8	0.434 ± 0.01
353.15 K, x1 = 0.0676	984.7 ± 5.9	0.525 ± 0.012
353.15 K, x1 = 0.1105	993.6 ± 5.9	0.629 ± 0.013
353.15 K, x1 = 0.162	1003.8 ± 6	0.758 ± 0.015
353.15 K, x1 = 0.2248	1014 ± 6	0.906 ± 0.017
353.15 K, x1 = 0.3031	1023.7 ± 6.1	1.1 ± 0.02
353.15 K, x1 = 0.4036	1033 ± 6	1.359 ± 0.024
353.15 K, x1 = 0.537	1042 ± 6	1.748 ± 0.031
353.15 K, x1 = 0.723	1050.9 ± 6.2	2.296 ± 0.039
353.15 K, x1 = 1	1060 ± 6.3	3.021 ± 0.051
